Legend:
human MAT2A enzyme = human MAT2A enzyme (Homo sapiens (Human), UniProt P31153); assay: In vitro enzymatic inhibition activity assay on MAT2A (PiColorLock phosphate detection); format: biochemical; conditions: purified human MAT2A 10 nM, ATP 50 μM, L-methionine 100 μM, 6 h at 23° C.; read-out: MAT2A inhibitory activity IC50
In short: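 Purified human MAT2A (10 nM) turned L-methionine (100 μM) and ATP (50 μM) into SAM in Tris-HCl pH 7.5 buffer with MgCl2, KCl and DTT for 6 h at 23 °C. Released phosphate was read colorimetrically at 630 nm. IC50 was fitted from an 8-point, 10-fold dilution series.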

[1] = In vivo pharmacokinetic study in CD-1 mice; conditions: male, mouse, single oral gavage dose of 10 mg/kg, plasma
Protocol: In vivo pharmacokinetic study in CD-1 mice
Twenty-four healthy adult male mice from Beijing Vital River Laboratory Animal Technology Co., Ltd. were used in the study.
CD-1 mice were administered with a single oral gavage dose of 10 mg/kg in a volume of 10 mL/kg at a concentration of 1 mg/mL.
The test article in this project is generally suspended in 0.5% hydroxypropylmethyl cellulose, 0.1% Tween 80 (W/V/V) aqueous solution at the concentration of 1 mg/mL.
Animals dosed by gavage were fasted overnight before the experiment from 16 h before dosing to 4 h after dosing. Blood was collected at 0.25, 0.5, 1, 2, 4, 6, 8, and 24 h after administration successively. The animals were lightly anesthetized with isoflurane. About 0.2 mL of whole blood was collected from the orbital venous plexus using a glass blood collection tube and placed in a sodium heparin anticoagulant tube. The sample was centrifuged at 5200 rpm for 5 min at 4° C. The plasma was transferred to a centrifuge tube and stored at −80° C. until analysis.
Analysis of plasma samples Test compounds and internal standards (warfarin or propranolol) were extracted from mouse plasma using an acetonitrile protein precipitation method and the extracts were analyzed by LC/MS/MS. The measured plasma concentration-time data of individual animals were analyzed using the non-compartmental model of WinNonlin (version 5.2.1, Pharsight) software to obtain the corresponding pharmacokinetic parameters: maximum (peak) plasma drug concentration Cmax; Time to peak Tmax; Half-life T1/2 and area under the plasma concentration-time curve extrapolated to infinite time AUC0-inf.

Chain of human MAT2A enzyme (P31153 whole entry): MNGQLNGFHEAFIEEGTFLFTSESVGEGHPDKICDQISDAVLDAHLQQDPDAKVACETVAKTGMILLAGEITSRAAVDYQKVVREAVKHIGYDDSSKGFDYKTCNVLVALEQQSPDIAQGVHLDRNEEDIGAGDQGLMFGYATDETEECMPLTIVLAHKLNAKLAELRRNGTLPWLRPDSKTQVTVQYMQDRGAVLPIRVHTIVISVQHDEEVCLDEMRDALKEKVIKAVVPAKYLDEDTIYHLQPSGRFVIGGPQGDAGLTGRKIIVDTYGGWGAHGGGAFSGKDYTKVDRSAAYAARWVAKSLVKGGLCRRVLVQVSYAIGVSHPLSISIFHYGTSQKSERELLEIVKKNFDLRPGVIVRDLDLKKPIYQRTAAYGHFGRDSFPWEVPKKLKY

| Compound | IC50 (human MAT2A enzyme) [nM] | AUC [1] [ng·h/mL] | Cmax [1] [ng/mL] | Tmax [1] [h] | half-life [1] [h] |
| --- | --- | --- | --- | --- | --- |
| COC(=O)c1c(N)c2ccc(Br)cc2n(-c2ccc(C)nc2)c1=O [Example 214, methyl 4-amino-7-bromo-1-(6-methylpyridin-3-yl)-2-oxo-1,2-dihydroquinoline-3-carboxylate] | 2.89 | 232000 | 28600 | 1 | 2.53 |
| COC(=O)c1c(N)c2ccc(C(F)(F)F)cc2n(-c2cccc3cnccc23)c1=O [Example 88, methyl 4-amino-1-(isoquinolin-5-yl)-2-oxo-7-(trifluoromethyl)-1,2-dihydroquinoline-3-carboxylate] | 7.3 | 24800 | 6690 | 0.42 | 3.88 |
| COC(=O)c1c(N)c2ccc(Br)cc2n(-c2ccc(N)cc2C)c1=O [Example 238, methyl 4-amino-1-(4-amino-2-methylphenyl)-7-bromo-2-oxo-1,2-dihydroquinoline-3-carboxylate] | 1.24 | 591000 | 37500 | 4 | 9.25 |
| COC(=O)c1c(N)c2ccc(Cl)cc2n(-c2ccccc2)c1=O [Example 15, methyl 4-amino-7-chloro-2-oxo-1-phenyl-1,2-dihydroquinoline-3—carboxylate] |  | 44200 | 3080 | 6 | 8.88 |
| COC(=O)c1c(N)c2ccc(C(F)(F)F)cc2n(-c2ccccc2C)c1=O [Example 23, methyl 4-amino-7-trifluoromethyl-1-(2-methylphenyl)-2-oxo-1,2-dihydro quinoline-3-carboxylate] | 0.91 | 37000 | 2640 | 6 | 6.51 |
| COC(=O)c1c(N)c2ccc(OC(F)(F)F)cc2n(-c2ccc(N)cc2)c1=O [Example 379, methyl 4-amino-1-(4-aminophenyl)-2-oxo-7-(trifluoromethoxy)-1,2-dihydroquinoline-3-carboxylate] | 1.41 | 468000 | 18600 | 4 | 16.5 |
| COC(=O)c1c(N)c2ccc(C(F)(F)F)nc2n(-c2ccc(N)cc2Cl)c1=O [Example 325, methyl 4-amino-1-(4-amino-2-chlorophenyl)-2-oxo-7-trifluoromethyl-1,2-dihydro-1,8-naphthyridine-3-carboxylate] | 2.29 | 452000 | 52800 | 1 | 6.81 |
| COC(=O)c1c(N)c2ccc(Br)cc2n(-c2ccccc2)c1=O [Example 22, methyl 4-amino-7-bromo-2-oxo-1-phenyl-1,2-dihydroquinoline-3—carboxylate] | 0.54 | 25300 | 1920 | 6 | 6.82 |
| COC(=O)c1c(N)c2ccc(Br)cc2n(-c2ccc(N)nc2)c1=O [Example 180, methyl 4-amino-1-(6-aminopyridin-3-yl)-7-bromo-2-oxo-1,2-dihydroquinoline-3-carboxylate] | 0.76 | 32800 | 5060 | 2.08 | 4.09 |
| COC(=O)c1c(N)c2ccc(C(F)(F)F)cc2n(-c2ccc3c(c2)OCC3)c1=O [Example 111, methyl 4-amino-1-(2,3-dihydro-1-benzofuran-6-yl)-2-oxo-7-(trifluoromethyl)-1,2-dihydroquinoline-3-carboxylate] | 4.06 |  |  |  |  |
| COC(=O)c1c(N)c2ccc(OC)cc2n(-c2ccc([C@@H](C)O)cc2)c1=O [Example 365, methyl (R)-4-amino-1-(4-(1-hydroxyethyl)phenyl)-7-methoxy-2-oxo-1,2-dihydroquinoline-3-carboxylate] | 2.02 |  |  |  |  |
| COC(=O)c1c(N)c2ccc(I)cc2n(-c2ccc(C(C)O)nc2)c1=O (stereo not shown) [Example 307, methyl 4-amino-1-(6-(1-hydroxyethyl)pyridin-3-yl)-2-oxo-7-iodo-1,2-dihydroquinoline-3-carboxylate] | 1.14 |  |  |  |  |
| COC(=O)c1c(N)c2ccc(C3CC3)cc2n(-c2ccc(OC)cc2)c1=O [Example 73, methyl 4-amino-7-cyclopropyl-1-(4-methoxyphenyl)-2-oxo-1-phenyl-1,2-dihydroquinoline-3-carboxylate] | 1.67 |  |  |  |  |
| COC(=O)c1c(N)c2ccc(Br)cc2n(-c2ccc3ccncc3c2)c1=O [Example 219, methyl 4-amino-7-bromo-1-(isoquinolin-7-yl)-2-oxo-1,2-dihydroquinoline-3-carboxylate] | 1.87 |  |  |  |  |
| COC(=O)c1c(N)c2ccc(OC(F)F)cc2n(-c2ccc([C@@H](C)O)cc2)c1=O [Example 354, methyl (R)-4-amino-7-(difluoromethoxy)-1-(4-(1-hydroxyethyl)phenyl)-2-oxo-1,2-dihydroquinoline-3-carboxylate] | 0.46 |  |  |  |  |
| COC(=O)c1c(N)c2ccc(C(F)(F)F)cc2n(-c2ccc(C)c(N)c2)c1=O [Example 253, methyl 4-amino-1-(3-amino-4-methylphenyl)-2-oxo-7-(trifluoromethyl)-1,2-dihydroquinoline-3-carboxylate] | 1.76 |  |  |  |  |
| COC(=O)c1c(N)c2ccc(C(F)(F)F)cc2n(-c2ccc(Br)cc2)c1=O [Example 81, methyl 4-amino-1-(4-bromophenyl)-2-oxo-7-(trifluoromethyl)-1,2-dihydro quinoline-3-carboxylate] | 1.68 |  |  |  |  |
| COC(=O)c1c(N)c2ccc(C(F)(F)F)cc2n(-c2ccc3ccoc3c2)c1=O [Example 187, methyl 4-amino-1-(1-benzofuran-6-yl)-2-oxo-7-(trifluoromethyl)-1,2-dihydroquinoline-3-carboxylate] | 0.76 |  |  |  |  |
| COC(=O)c1c(N)c2ccc(Br)nc2n(-c2ccc(N)cc2Cl)c1=O [Example 295, methyl 4-amino-1-(4-amino-2-chlorophenyl)-2-oxo-7-bromo-1,2-dihydro-1,8-naphthyridine-3-carboxylate] | 0.89 |  |  |  |  |
| [2H]C([2H])([2H])OC(=O)c1c(N)c2ccc(OC(F)(F)F)cc2n(-c2ccc([C@@H](C)O)cc2)c1=O [Example 393, methyl-d3 4-amino-1-(4-((1R)-1-hydroxyethyl)phenyl)-2-oxo-7-(trifluoromethoxy)-1,2-dihydroquinoline-3-carboxylate] | 1.52 |  |  |  |  |
| COC(=O)c1c(N)c2ccc(C(F)(F)F)cc2n(-c2ccc(C=O)cc2)c1=O [Example 164, methyl 4-amino-1-(4-formylphenyl)-2-oxo-7-(trifluoromethyl)-1,2-dihydroquinoline-3-carboxylate] | 7.58 |  |  |  |  |
| COC(=O)c1c(N)c2ccc(C(F)(F)F)cc2n(-c2ccc3ccccc3c2)c1=O [Example 26, methyl 4-amino-1-(naphthalen-2-yl)-2-oxo-7-(trifluoromethyl)-1,2-dihydro quinoline-3-carboxylate] | 1.04 |  |  |  |  |
| COC(=O)c1c(N)c2ccc(C(F)(F)F)cc2n(-c2ccc(C(C)O)cc2C)c1=O (stereo not shown) [Example 269, methyl 4-amino-1-(4-(1-hydroxyethyl)-2-methylphenyl)-2-oxo-7-(trifluoromethyl)-1,2-dihydroquinoline-3-carboxylate] | 5.95 |  |  |  |  |
